These are literature values, as cited in patent US10779561B2, “Resveratrol solubility” (AQUANOVA AG, priority 2016, dated 2020).

SMILES strings stand for the structures.

In one series the test system is rats. Particulars: several in-vivo studies in rats.
For a further series, the system named is NFκ-b. The following applies: in-vitro conditions.

Take `Oc1ccc(C=Cc2cc(O)cc(O)c2)cc1` [resveratrol]: the neuro-protective effect result in the series on rats was “neuro-protective effect”. In addition, the “effect on nuclear translocation of NFκ-b” value in the series with NFκ-b is listed as “inhibits the nuclear translocation of NFκ-b”.
